In patent US12448388B2, “PRMT5 inhibitors and uses thereof” (Gilead Sciences, Inc., priority 2023, dated 2025):

System: HCT116 MTAP-deleted cell lines
Test: Cell viability assay (CellTiter-Glo, 7 days), HCT116 MTAP-deleted
Assay type: cell-based
Details: Homo sapiens, HCT-116
Procedure, shortened: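 PRMT5 inhibitors were serially diluted in DMSO and acoustically spotted as dose-response series into plates before cell seeding. Cells were grown with compound for 7 days at 37 °C, 5% CO2, 90% humidity, then viability was read by CellTiter-Glo luminescence and reported as CC50.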

Compared with Nc1nc2cc(F)c(C(=O)N3CC4(CC[C@@H]3c3ccc(C(F)(F)F)cc3)CC4)cc2n2cncc12 (single isomer, unassigned) [Ff-154], Nc1nc2cc(F)c(C(=O)N3CC4(CC[C@H]3c3ccc(C(F)(F)F)cc3)CC4)cc2n2cncc12 (single isomer, unassigned) [Ff-155] is higher in CC50: under 100 nM for the first, 100 to 1000 nM for the second.

Same assay, conditions: Homo sapiens, HCT-116; cell viability assay, HCT116 MTAP-deleted; class symbols; read-out: CC50

COc1ccc2c(c1)CO[C@H]1CCCN(C(=O)c3cc4c(cc3F)nc(N)c3cncn34)[C@@H]21 (single isomer, unassigned) [Ff-390] and Nc1nc2cc(F)c(C(=O)N3CCO[C@@H]4Cc5cc(F)ccc5[C@@H]43)cc2n2cncc12 (single isomer, unassigned) [Ff-467] cannot be ordered by CC50: under 100 nM for the first, under 100 nM for the second.

First: C[C@@H]1C[C@@H]2Cc3nc(C(F)(F)F)ccc3[C@@H]2N(C(=O)c2cc3c(cc2F)nc(N)c2cncn23)C1 (single isomer, unassigned) [Ff-393]
Second: Nc1nc2cc(F)c(C(=O)N3CCC[C@H]4Oc5cc(OC(F)(F)F)ccc5[C@H]43)cc2n2cncc12 (single isomer, unassigned) [Ff-394]
The CC50 of the first is lower: under 100 nM for the first, 100 to 1000 nM for the second.

Nc1nc2cc(F)c(C(=O)N3CCC[C@@H]4Oc5cc(OC(F)(F)F)ccc5[C@@H]43)cc2n2cncc12 (single isomer, unassigned) [Ff-395] and Nc1nc2cc(F)c(C(=O)N3CCC[C@@H]4Oc5cc(OC(F)(F)F)c(F)cc5[C@@H]43)cc2n2cncc12 (single isomer, unassigned) [Ff-396] cannot be ordered by CC50: under 100 nM for the first, under 100 nM for the second.

Compared with Nc1nc2cc(F)c(C(=O)N3CCC[C@H]4Oc5cc(OC(F)(F)F)c(F)cc5[C@H]43)cc2n2cncc12 (single isomer, unassigned) [Ff-397], Cc1ncn2c1c(N)nc1ccc(C(=O)N3CCC[C@@H]4Oc5cc(OC(F)(F)F)ccc5[C@@H]43)cc12 (single isomer, unassigned) [Ff-400] is lower in CC50: 100 to 1000 nM for the first, under 100 nM for the second.

Compared with CN(C(=O)c1cc2c(cc1F)nc(N)c1cncn12)[C@@H]1CCc2cc(C(F)(F)F)ccc21 (single isomer, unassigned) [Ff-398], Cc1ncc2c(N)nc3cnc(C(=O)N4C[C@@H](C)O[C@@H]5Cc6cc(Cl)ccc6[C@@H]54)cc3n12 (single isomer, unassigned) [Ff-463] is higher in CC50: under 100 nM for the first, 100 to 1000 nM for the second.

Compound Cc1ncc2c(N)nc3cnc(C(=O)N4C[C@H](C)O[C@@H]5Cc6cc(Cl)ccc6[C@@H]54)cc3n12 (single isomer, unassigned) [Ff-464] has a CC50 of 100 to 1000 nM.

Same assay, conditions: Homo sapiens, HCT-116; cell viability, HCT116 MTAP-deleted; class symbols; read-out: CC50

Compared with Nc1nc2cc(F)c(C(=O)N3CCCC[C@@H]3c3ccc(C(F)(F)F)cc3F)cc2n2cncc12 (single isomer, unassigned) [Ff-151], Nc1nc2cc(F)c(C(=O)N3CCCC[C@H]3c3ccc(C(F)(F)F)cc3F)cc2n2cncc12 (single isomer, unassigned) [Ff-152] is higher in CC50: under 100 nM for the first, 100 to 1000 nM for the second.

C[C@H]1CN(C(=O)c2cc3c(cc2F)nc(N)c2cncn23)[C@H]2c3ccc(Br)c(F)c3C[C@H]2O1 (single isomer, unassigned) [Ff-164] and C[C@H]1CN(C(=O)c2cc3c(cc2F)nc(N)c2cncn23)[C@H]2c3ccc(C(F)F)c(F)c3C[C@H]2O1 (single isomer, unassigned) [Ff-171] cannot be ordered by CC50: under 100 nM for the first, under 100 nM for the second.

C[C@@H]1CN(C(=O)c2cc3c(cc2F)nc(N)c2cncn23)[C@H]2c3cc(F)c(C(F)F)cc3C[C@H]2O1 (single isomer, unassigned) [Ff-172] and C[C@@H]1CN(C(=O)c2cc3c(cc2F)nc(N)c2cncn23)[C@H]2c3cc(F)c(C(F)(F)F)cc3C[C@H]2O1 (single isomer, unassigned) [Ff-328] cannot be ordered by CC50: under 100 nM for the first, under 100 nM for the second.

C[C@H]1CN(C(=O)c2cc3c(cc2F)nc(N)c2cncn23)[C@H]2c3ccc(OC(F)(F)F)cc3C[C@H]2O1 (single isomer, unassigned) [Ff-184] and C[C@@H]1CN(C(=O)c2cc3c(cn2)nc(N)c2cncn23)[C@H]2c3ccc(OC(F)(F)F)cc3C[C@H]2O1 (single isomer, unassigned) [Ff-185] cannot be ordered by CC50: under 100 nM for the first, under 100 nM for the second.

C[C@H]1CN(C(=O)c2cc3c(cn2)nc(N)c2cncn23)[C@H]2c3ccc(OC(F)(F)F)cc3C[C@H]2O1 (single isomer, unassigned) [Ff-186] and C[C@@H]1CN(C(=O)c2ccc3nc(N)c4cncn4c3c2)[C@H]2c3ccc(OC(F)(F)F)cc3C[C@H]2O1 (single isomer, unassigned) [Ff-187] cannot be ordered by CC50: under 100 nM for the first, under 100 nM for the second.

First: C[C@H]1CN(C(=O)c2ccc3nc(N)c4cncn4c3c2)[C@H]2c3ccc(OC(F)(F)F)cc3C[C@H]2O1 (single isomer, unassigned) [Ff-188]
Second: Cc1ncc2c(N)nc3ccc(C(=O)N4C[C@@H](C)O[C@@H]5Cc6cc(OC(F)(F)F)ccc6[C@@H]54)cc3n12 (single isomer, unassigned) [Ff-189]
The CC50 of the first is lower: under 100 nM for the first, 100 to 1000 nM for the second.

Cc1ncc2c(N)nc3ccc(C(=O)N4C[C@H](C)O[C@@H]5Cc6cc(OC(F)(F)F)ccc6[C@@H]54)cc3n12 (single isomer, unassigned) [Ff-190] and C[C@@H]1CN(C(=O)c2cc3c(cn2)nc(N)c2cncn23)[C@H]2c3ccc(OC(F)(F)F)c(F)c3C[C@H]2O1 (single isomer, unassigned) [Ff-193] fall in the same range of CC50: 100 to 1000 nM for the first, 100 to 1000 nM for the second.

C[C@@H]1CN(C(=O)c2cc3c(cc2F)nc(N)c2cncn23)[C@H]2c3ccc(OC(F)(F)F)c(F)c3C[C@H]2O1 (single isomer, unassigned) [Ff-191] and C[C@H]1CN(C(=O)c2cc3c(cc2F)nc(N)c2cncn23)[C@H]2c3ccc(OC(F)(F)F)c(F)c3C[C@H]2O1 (single isomer, unassigned) [Ff-192] cannot be ordered by CC50: under 100 nM for the first, under 100 nM for the second.

First: C[C@H]1CN(C(=O)c2cc3c(cn2)nc(N)c2cncn23)[C@H]2c3ccc(OC(F)(F)F)c(F)c3C[C@H]2O1 (single isomer, unassigned) [Ff-194]
Second: C[C@@H]1CN(C(=O)c2cc3c(cn2)nc(N)c2cncn23)[C@H]2c3cc(F)c(OC(F)(F)F)cc3C[C@H]2O1 (single isomer, unassigned) [Ff-195]
The CC50 of the first is higher: 100 to 1000 nM for the first, under 100 nM for the second.

C[C@H]1CN(C(=O)c2cc3c(cn2)nc(N)c2cncn23)[C@H]2c3cc(F)c(OC(F)(F)F)cc3C[C@H]2O1 (single isomer, unassigned) [Ff-196] and C[C@H]1CN(C(=O)c2cc3c(cc2F)nc(N)c2cncn23)[C@H]2c3cc(F)c(OC(F)(F)F)cc3C[C@H]2O1 (single isomer, unassigned) [Ff-198] cannot be ordered by CC50: under 100 nM for the first, under 100 nM for the second.

Compared with Nc1nc2cc(F)c(C(=O)N3CC(F)(F)CC[C@@H]3c3ccc(C(F)(F)F)cn3)cc2n2cncc12 (single isomer, unassigned) [Ff-242], Nc1nc2cc(F)c(C(=O)N3CC(F)(F)CC[C@H]3c3ccc(C(F)(F)F)cn3)cc2n2cncc12 (single isomer, unassigned) [Ff-243] is higher in CC50: under 100 nM for the first, 100 to 1000 nM for the second.

Compared with Nc1nc2cc(F)c(C(=O)N3C[C@H](F)CC[C@@H]3c3ccc(C(F)(F)F)cn3)cc2n2cncc12 (single isomer, unassigned) [Ff-244], Nc1nc2cc(F)c(C(=O)N3C[C@H](F)CC[C@H]3c3ccc(C(F)(F)F)cn3)cc2n2cncc12 (single isomer, unassigned) [Ff-245] is higher in CC50: under 100 nM for the first, 100 to 1000 nM for the second.

C[C@H]1CN(C(=O)c2cc3c(cc2F)nc(N)c2cncn23)[C@H]2c3cc(F)c(C(F)(F)F)cc3C[C@H]2O1 (single isomer, unassigned) [Ff-329] gave a CC50 of under 100 nM.
